Data on 13 compounds can be found in ChEMBL document CHEMBL1909046, “DrugMatrix in vitro pharmacology data”.

The target of test [1] is T1, 5-hydroxytryptamine receptor 1A (Rattus norvegicus, UniProt P19327). Note: in other assays of this panel Not Active means under 50% inhibition at 10 µM.
T1 sequence (P19327 whole entry): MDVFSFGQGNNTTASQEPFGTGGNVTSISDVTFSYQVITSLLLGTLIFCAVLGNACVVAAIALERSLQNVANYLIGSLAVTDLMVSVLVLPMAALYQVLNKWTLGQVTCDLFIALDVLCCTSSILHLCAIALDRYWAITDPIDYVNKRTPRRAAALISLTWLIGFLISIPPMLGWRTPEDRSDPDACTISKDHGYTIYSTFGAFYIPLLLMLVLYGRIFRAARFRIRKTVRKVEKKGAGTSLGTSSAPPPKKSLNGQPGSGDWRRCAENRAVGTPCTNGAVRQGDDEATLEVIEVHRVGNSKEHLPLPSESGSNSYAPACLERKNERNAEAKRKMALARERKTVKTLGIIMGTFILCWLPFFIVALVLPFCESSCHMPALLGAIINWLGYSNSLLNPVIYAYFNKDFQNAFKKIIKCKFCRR
The format is cell membranes, Membrane. The settings on record: cho-k1.

The target in test [2] is Sodium-dependent noradrenaline transporter (Homo sapiens, UniProt P23975). The test can be described thus: DRUGMATRIX: Norepinephrine Transporter radioligand binding (ligand: [125I] RTI-55). The format is cell membranes, MDCK, Membrane. The settings on record: mdck; Not Active = under 50% inhibition at 10 µM.
Sodium-dependent noradrenaline transporter, sequence (P23975 whole entry): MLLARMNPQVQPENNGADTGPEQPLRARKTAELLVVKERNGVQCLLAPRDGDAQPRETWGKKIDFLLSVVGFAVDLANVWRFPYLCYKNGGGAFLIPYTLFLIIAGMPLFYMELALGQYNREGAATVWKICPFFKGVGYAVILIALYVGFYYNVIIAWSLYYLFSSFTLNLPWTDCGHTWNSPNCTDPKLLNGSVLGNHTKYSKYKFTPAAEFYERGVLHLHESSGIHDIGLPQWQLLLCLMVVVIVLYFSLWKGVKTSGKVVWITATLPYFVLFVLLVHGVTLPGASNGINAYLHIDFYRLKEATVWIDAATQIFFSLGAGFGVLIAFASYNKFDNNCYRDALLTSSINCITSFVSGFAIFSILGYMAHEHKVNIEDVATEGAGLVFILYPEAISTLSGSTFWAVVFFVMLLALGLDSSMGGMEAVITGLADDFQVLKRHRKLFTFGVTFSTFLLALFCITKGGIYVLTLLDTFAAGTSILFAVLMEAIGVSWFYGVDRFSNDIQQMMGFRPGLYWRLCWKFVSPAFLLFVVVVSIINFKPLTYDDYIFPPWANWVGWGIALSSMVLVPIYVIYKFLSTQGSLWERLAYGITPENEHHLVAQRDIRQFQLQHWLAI
The target of test [3] is T2, Receptor-type tyrosine-protein phosphatase C (Homo sapiens, UniProt P08575).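 Note: inhibition of CD45 enzyme activity measured using DiFMUP as substrate; in other assays of this panel Not Active means under 50% inhibition at 10 µM.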
T2 sequence (P08575 whole entry): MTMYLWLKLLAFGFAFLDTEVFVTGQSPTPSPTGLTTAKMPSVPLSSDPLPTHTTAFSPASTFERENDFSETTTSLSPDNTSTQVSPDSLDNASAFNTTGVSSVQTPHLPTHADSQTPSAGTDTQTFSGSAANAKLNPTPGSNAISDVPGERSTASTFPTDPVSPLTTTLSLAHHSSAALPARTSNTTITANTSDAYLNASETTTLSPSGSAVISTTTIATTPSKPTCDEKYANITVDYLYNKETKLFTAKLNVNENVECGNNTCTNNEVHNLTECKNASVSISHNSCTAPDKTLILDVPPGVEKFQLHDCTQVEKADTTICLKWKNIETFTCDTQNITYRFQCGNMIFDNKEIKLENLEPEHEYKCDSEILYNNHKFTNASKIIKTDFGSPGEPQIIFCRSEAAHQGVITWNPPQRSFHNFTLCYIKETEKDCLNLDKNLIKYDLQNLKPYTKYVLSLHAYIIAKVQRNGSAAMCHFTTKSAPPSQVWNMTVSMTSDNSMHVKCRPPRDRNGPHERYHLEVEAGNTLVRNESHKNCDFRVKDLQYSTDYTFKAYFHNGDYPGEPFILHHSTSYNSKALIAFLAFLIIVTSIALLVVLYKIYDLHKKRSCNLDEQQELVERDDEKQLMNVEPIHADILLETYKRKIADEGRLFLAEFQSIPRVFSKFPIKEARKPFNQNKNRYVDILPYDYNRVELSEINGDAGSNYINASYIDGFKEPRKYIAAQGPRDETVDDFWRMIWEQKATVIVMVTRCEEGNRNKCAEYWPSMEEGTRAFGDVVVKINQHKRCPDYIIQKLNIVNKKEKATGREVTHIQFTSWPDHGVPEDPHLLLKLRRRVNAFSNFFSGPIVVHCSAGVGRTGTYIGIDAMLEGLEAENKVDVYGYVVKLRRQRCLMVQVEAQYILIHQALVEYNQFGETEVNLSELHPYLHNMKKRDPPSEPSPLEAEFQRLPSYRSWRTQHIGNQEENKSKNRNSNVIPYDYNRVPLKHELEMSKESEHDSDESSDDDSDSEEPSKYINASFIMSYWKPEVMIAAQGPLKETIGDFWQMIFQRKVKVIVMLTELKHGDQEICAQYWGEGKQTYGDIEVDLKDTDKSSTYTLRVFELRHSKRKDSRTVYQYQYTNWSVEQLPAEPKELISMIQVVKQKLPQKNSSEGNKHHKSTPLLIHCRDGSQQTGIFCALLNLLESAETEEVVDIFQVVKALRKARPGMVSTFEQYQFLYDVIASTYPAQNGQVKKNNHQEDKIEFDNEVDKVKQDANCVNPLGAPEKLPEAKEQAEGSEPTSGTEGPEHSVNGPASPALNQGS
Further details: species or system Escherichia coli.

The target of test [4] is T3, Type-2 angiotensin II receptor (Homo sapiens, UniProt P50052). Note: in other assays of this panel Not Active means under 50% inhibition at 10 µM.
T3 sequence (P50052 whole entry): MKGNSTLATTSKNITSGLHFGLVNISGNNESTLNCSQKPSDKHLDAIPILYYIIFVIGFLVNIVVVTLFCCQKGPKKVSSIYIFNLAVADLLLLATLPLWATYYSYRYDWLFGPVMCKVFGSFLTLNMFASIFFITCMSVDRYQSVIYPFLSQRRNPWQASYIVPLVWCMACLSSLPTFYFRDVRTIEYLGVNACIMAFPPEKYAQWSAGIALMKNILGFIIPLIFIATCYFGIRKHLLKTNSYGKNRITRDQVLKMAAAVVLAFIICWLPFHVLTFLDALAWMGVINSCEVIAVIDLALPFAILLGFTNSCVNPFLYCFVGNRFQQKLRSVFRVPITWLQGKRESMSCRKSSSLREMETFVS
Format: cell-based. The settings on record: cho-k1.

Test [5] deals with Protein phosphatase 3 catalytic subunit alpha (Homo sapiens, UniProt Q08209). More on the design: species or system Escherichia coli.
The nature of test [6]: DRUGMATRIX: Sodium/nucleoside co-transporter radioligand binding (ligand: nitrobenzylthioinosine). The settings on record: Not Active = under 50% inhibition at 10 µM. Format: cell membranes, Cavia porcellus, Dunkin-Hartley, Cerebral cortex, Membrane.
The target in another test is T4, Neutrophil elastase (Homo sapiens, UniProt P08246).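 Note: inhibition of neutrophil elastase enzyme activity, measured with a p-nitroanilide-linked peptide substrate; in other assays of this panel Not Active means under 50% inhibition at 10 µM.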
T4 sequence (P08246 whole entry): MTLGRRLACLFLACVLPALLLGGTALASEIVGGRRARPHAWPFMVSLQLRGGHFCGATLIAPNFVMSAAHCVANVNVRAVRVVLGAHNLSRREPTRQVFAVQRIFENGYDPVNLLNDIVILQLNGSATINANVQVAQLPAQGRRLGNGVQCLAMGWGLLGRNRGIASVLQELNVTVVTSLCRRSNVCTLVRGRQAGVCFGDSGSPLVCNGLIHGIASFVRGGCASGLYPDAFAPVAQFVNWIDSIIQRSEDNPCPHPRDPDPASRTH
Format: tissue-based.

Test [7] has as its target 5-hydroxytryptamine receptor 2B (Homo sapiens, UniProt P41595). The format is cell membranes, CHO-K1, Membrane. Note: in other assays of this panel Not Active means under 50% inhibition at 10 µM.

The IC50 is the point on the concentration scale where inhibition reaches its midpoint. Broadly, the Ki is a measure of affinity in units of concentration, obtained from inhibition or displacement.

5-hydroxytryptamine receptor 2B, sequence (P41595 whole entry): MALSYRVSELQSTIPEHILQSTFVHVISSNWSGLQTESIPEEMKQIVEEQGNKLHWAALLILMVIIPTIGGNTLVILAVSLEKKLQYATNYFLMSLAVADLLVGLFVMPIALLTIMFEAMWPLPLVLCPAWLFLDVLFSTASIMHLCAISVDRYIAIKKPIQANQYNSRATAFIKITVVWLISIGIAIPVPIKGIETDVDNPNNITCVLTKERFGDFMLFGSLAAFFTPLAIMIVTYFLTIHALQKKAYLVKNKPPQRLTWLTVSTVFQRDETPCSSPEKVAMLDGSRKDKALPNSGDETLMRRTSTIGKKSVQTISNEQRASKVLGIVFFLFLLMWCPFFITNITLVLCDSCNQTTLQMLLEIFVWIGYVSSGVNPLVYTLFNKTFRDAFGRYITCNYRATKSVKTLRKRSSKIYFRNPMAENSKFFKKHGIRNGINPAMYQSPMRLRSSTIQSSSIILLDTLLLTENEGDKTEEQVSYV

On to `CC(C)(Oc1ccc(C2CCCc3ccccc32)cc1)C(=O)O` (stereo not drawn) [NAFENOPIN], for which the 50% inhibitory concentration (IC50) result in test [1], in test [2], in test [3], in test [4], in test [5] and in test [6] was “Not Active” throughout. The 50% inhibitory concentration (IC50) result (at Neutrophil elastase; in test [7] (cho-k1)) was “Not Active” throughout. The inhibitory constant (Ki) entry in test [6] is “Not Active”.
Turning to `COc1ccc2cc([C@H](C)C(=O)O)ccc2c1` [NAPROXEN], the IC50 result in test [1], in test [2], in test [3], in test [4], in test [5] and in test [6] was “Not Active” throughout. In addition, the IC50 entry (against Neutrophil elastase; in test [7] (cho-k1)) was “Not Active” in each case. Further, the Ki result in test [6] is on record as “Not Active”.
In the case of `CC(C)[C@H]1CC[C@H](C(=O)N[C@H](Cc2ccccc2)C(=O)O)CC1` [NATEGLINIDE], the IC50 result in test [1], in test [2], in test [3], in test [4], in test [5] and in test [6] was “Not Active” each time. The IC50 result (against Neutrophil elastase; in test [7] (cho-k1)) was “Not Active” throughout. Besides, in test [6], the Ki result is reported as “Not Active”.
Consider `CCN[C@@H]1C[C@H](N)[C@@H](O[C@H]2OC(CN)=CC[C@H]2N)[C@H](O)[C@H]1O[C@H]1OC[C@](C)(O)[C@H](NC)[C@H]1O` [NETILMICIN], for which the IC50 entry in test [1], in test [2], in test [3], in test [4], in test [5] and in test [6] was “Not Active” each time. Moreover, the IC50 entry (at Neutrophil elastase; in test [7] (cho-k1)) was “Not Active” throughout. Further, the Ki result in test [6] is given as “Not Active”.
Regarding `COC(=O)C1=C(C)NC(C)=C(C(=O)OCC(C)C)C1c1ccccc1[N+](=O)[O-]` (stereo not drawn) [NISOLDIPINE], the IC50 result in test [1], in test [2], in test [3], in test [4], in test [5] and in test [6] was “Not Active” each time. Moreover, the IC50 result (against Neutrophil elastase; in test [7] (cho-k1)) was “Not Active” each time. The Ki entry in test [6] is recorded as “Not Active”.
`CCOC(=O)C1=C(C)NC(C)=C(C(=O)OC)C1c1cccc([N+](=O)[O-])c1` (stereo not drawn) [NITRENDIPINE]: the IC50 result in test [1], in test [2], in test [3], in test [4], in test [5] and in test [6] was “Not Active” throughout. In addition, the IC50 result (at Neutrophil elastase; in test [7] (cho-k1)) was “Not Active” throughout. In addition, the Ki entry in test [6] is given as “Not Active”.
Consider `C#C[C@]1(OC(C)=O)CC[C@H]2[C@@H]3CCC4=CC(=O)CC[C@@H]4[C@H]3CC[C@@]21C` [NORETHINDRONE ACETATE], for which the IC50 entry in test [1], in test [2], in test [3], in test [4], in test [5] and in test [6] was “Not Active” throughout. The IC50 entry (against Neutrophil elastase; in test [7] (cho-k1)) was “Not Active” throughout. In test [6], the Ki entry was “Not Active”.
Consider `COc1ccc2[nH]c([S+]([O-])Cc3ncc(C)c(OC)c3C)nc2c1` (stereo not drawn) [OMEPRAZOLE], for which the IC50 entry in test [1], in test [2], in test [3], in test [4], in test [5] and in test [6] was “Not Active” each time. Moreover, the IC50 entry (against Neutrophil elastase; in test [7] (cho-k1)) was “Not Active” in each case. For the same compound, the Ki result in test [6] was “Not Active”.
With `Cc1nccn1CC1CCc2c(c3ccccc3n2C)C1=O` (stereo not drawn) [ONDANSETRON], the IC50 entry in test [1], in test [2], in test [3], in test [4], in test [5] and in test [6] was “Not Active” in each case. Further, the IC50 result against Neutrophil elastase was “Not Active”; in test [7] (read-out: IC50), 717 nM. The Ki entry was “Not Active” in test [6] and 456 nM in test [7] (read-out: Ki).
Regarding `CCn1cc(C(=O)O)c(=O)c2cc(F)c(N3CCN(C)CC3)cc21` [PEFLOXACIN], the IC50 entry in test [1], in test [2], in test [3], in test [4], in test [5] and in test [6] was “Not Active” throughout. Besides, the IC50 result (on Neutrophil elastase; in test [7] (cho-k1)) was “Not Active” each time. Besides, the Ki result in test [6] is reported as “Not Active”.
For the compound `CCCCOc1ccc(OCCCN2CCOCC2)cc1` [PRAMOXINE], the IC50 result in test [1], in test [2], in test [3], in test [4], in test [5] and in test [6] was “Not Active” throughout. Moreover, the IC50 entry (at Neutrophil elastase; in test [7] (cho-k1)) was “Not Active” throughout. Besides, in test [6], the Ki entry was “Not Active”.
As for `O=C(C1CCCCC1)N1CC(=O)N2CCc3ccccc3C2C1` (stereo not drawn) [PRAZIQUANTEL], the IC50 result in test [1], in test [2], in test [3], in test [4], in test [5] and in test [6] was “Not Active” in each case. Moreover, the IC50 entry (against Neutrophil elastase; in test [7] (cho-k1)) was “Not Active” each time. The Ki entry in test [6] is given as “Not Active”.
Consider `CCN(CC)CCOC(=O)c1ccc(N)cc1` [PROCAINE], for which the IC50 result in test [1], in test [2], in test [3], in test [4], in test [5] and in test [6] was “Not Active” throughout. Besides, the IC50 result (on Neutrophil elastase; in test [7] (cho-k1)) was “Not Active” throughout. In test [6], the Ki result is “Not Active”.
